One may read the pEC50 as −log10 of the EC50, conventionally taken in molar units.

pEC50: −log10 of the molar value.

The source of these data is patent publication US10611740B2, “Aryl dihydro-2H-benzo[b][1,4]oxazine sulfonamide and related compounds for use as agonists of RORγ and the treatment of disease” (Lycera Corporation, priority 2015, dated 2020).

In one assay the target is T1, RORγ-LBD (Homo sapiens, UniProt P51449).
T1 construct: made in house; host or cells: SF9 cells (baculovirus)
T1 sequence (P51449 269-508 limits assumed): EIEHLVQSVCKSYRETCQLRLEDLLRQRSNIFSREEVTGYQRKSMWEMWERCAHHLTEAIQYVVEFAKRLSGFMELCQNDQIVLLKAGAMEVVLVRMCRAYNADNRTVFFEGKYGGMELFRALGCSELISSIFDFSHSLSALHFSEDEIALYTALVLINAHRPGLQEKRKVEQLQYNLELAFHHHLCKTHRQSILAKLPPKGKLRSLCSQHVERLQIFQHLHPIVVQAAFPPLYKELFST
Kind of assay: RORγ-Ligand Binding Domain (LBD) TR-FRET Assay.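 On TR-FRET Assay Max Response: 665/615 nm ratio relative to signal without ursolic acid or compound set at 100.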 It counts as biochemical. An outline of the steps: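 SF9 lysate containing His-RORγ-LBD, ~3 nM final; coactivator peptide biotin-SRC1 LXXLL, 200 nM final; ursolic acid 2 μM final; DMSO 1% final; Tris pH 7.0 buffer with KCl, EDTA, DTT, BSA. TR-FRET format.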
(In general: Time-resolved FRET reads energy transfer from a long-lived donor to a nearby acceptor.)

For a further assay, the target named is T2, Gal4-RORγ-LBD (Homo sapiens, UniProt P51449).
T2 construct: expressed in transfected cells; host or cells: HEK-293 cells (pcDNA3.1neo plasmid)
T2 sequence (P51449 269-508 limits assumed): T1 sequence (P51449 269-508 limits assumed)
The assay can be described thus: Gal4-RORγ Luciferase Reporter Assay in HEK-293T Cells. It counts as cell-based. To be noted: HEK-293 cells, luciferase reporter, with 2 μM ursolic acid. An outline of the steps: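 In transfected HEK-293 cells (Gal4-RORγ-LBD, Gal4-luciferase), test agents with 2 μM ursolic acid were incubated overnight at 37 °C before luminescent detection. Values are relative to the ursolic-acid-free, compound-free signal (100).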
(In a reporter assay the amount or activity of a reporter protein is the signal.)

On to `C[C@](O)(CC[C@H]1CN(S(=O)(=O)c2cccc(C(F)(F)F)c2)c2cc(-c3cc(F)ccc3F)ccc2O1)C(=O)O` [Compound 39, (S)-4-((S)-6-(2,5-difluorophenyl)-4-((3-(trifluoromethyl)phenyl)sulfonyl)-3,4-dihydro-2H-benzo[b][1,4]oxazin-2-yl)-2-hydroxy-2-methylbutanoic acid], for which, on RORγ-LBD, the negative-log EC50 (pEC50) was greater than 6.30 and the “TR-FRET Assay Max Response” value is “**** (The symbol “****” indicates a value greater than 200)”. Moreover, on Gal4-RORγ-LBD, the pEC50 was greater than 6.30 and the “Gal4-RORγ Assay Max Response” value is reported as “** (The symbol “**” indicates a value in the range of greater than 90 to 150)”.

In the case of `C[C@@](O)(CC[C@H]1CN(S(=O)(=O)c2cccc(C(F)(F)F)c2)c2cc(-c3cc(F)ccc3F)ccc2O1)C(=O)O` [Compound 40, (R)-4-((S)-6-(2,5-difluorophenyl)-4-((3-(trifluoromethyl)phenyl)sulfonyl)-3,4-dihydro-2H-benzo[b][1,4]oxazin-2-yl)-2-hydroxy-2-methylbutanoic acid], on RORγ-LBD, the pEC50 was greater than 6.30 and the “TR-FRET Assay Max Response” value was “**** (The symbol “****” indicates a value greater than 200)”. Further, on Gal4-RORγ-LBD, the pEC50 was 5.30 to 6.30 and the “Gal4-RORγ Assay Max Response” value was “** (The symbol “**” indicates a value in the range of greater than 90 to 150)”.

On to `O=S(=O)(c1cccc(C(F)(F)F)c1)N1C[C@H]([C@H](O)CO)Oc2ccc(-c3cc(F)ccc3F)cc21` [Compound 41, (R)-1-((R)-6-(2,5-difluorophenyl)-4-((3-(trifluoromethyl)phenyl)sulfonyl)-3,4-dihydro-2H-benzo[b][1,4]oxazin-2-yl)ethane-1,2-diol], for which, on RORγ-LBD, the pEC50 is greater than 6.30 and the “TR-FRET Assay Max Response” value is recorded as “**** (The symbol “****” indicates a value greater than 200)”. Besides, on Gal4-RORγ-LBD, the pEC50 is greater than 6.30 and the “Gal4-RORγ Assay Max Response” value is listed as “* (The symbol “*” indicates a value in the range of 25 to 90)”.

As for `CS(=O)(=O)NC(=O)CC[C@H]1CN(S(=O)(=O)c2cccc(C(F)(F)F)c2)c2cc(-c3cc(F)ccc3F)ccc2O1` [Compound 42, (S)-3-(6-(2,5-difluorophenyl)-4-((3-(trifluoromethyl)phenyl)sulfonyl)-3,4-dihydro-2H-benzo[b][1,4]oxazin-2-yl)-N-(methylsulfonyl)propanamide], on RORγ-LBD, the pEC50 is greater than 6.30 and the “TR-FRET Assay Max Response” value is reported as “**** (The symbol “****” indicates a value greater than 200)”. At Gal4-RORγ-LBD, the pEC50 is greater than 6.30 and the “Gal4-RORγ Assay Max Response” value is reported as “** (The symbol “**” indicates a value in the range of greater than 90 to 150)”.

On to `O=C(CC[C@H]1CN(S(=O)(=O)c2cccc(C(F)(F)F)c2)c2cc(-c3ccc(F)cc3F)ccc2O1)NS(=O)(=O)c1ccccc1` [Compound 43A, (S)-3-(6-(2,4-difluorophenyl)-4-((3-(trifluoromethyl)phenyl)-sulfonyl)-3,4-dihydro-2H-benzo[b][1,4]oxazin-2-yl)-N-(phenylsulfonyl)propanamide], for which, on RORγ-LBD, the pEC50 was greater than 6.30 and the “TR-FRET Assay Max Response” value is given as “**** (The symbol “****” indicates a value greater than 200)”. Further, at Gal4-RORγ-LBD, the pEC50 is 5.30 to 6.30 and the “Gal4-RORγ Assay Max Response” value is on record as “*** (The symbol “***” indicates a value in the range of greater than 150 to 200)”.

Consider `O=C(CC[C@H]1CN(S(=O)(=O)c2cccc(C(F)(F)F)c2)c2cc(-c3ccc(F)cc3F)ccc2O1)NS(=O)(=O)C1CC1` [Compound 43B, (S)-N-(cyclopropylsulfonyl)-3-(6-(2,4-difluorophenyl)-4-((3-(trifluoromethyl)phenyl)-sulfonyl)-3,4-dihydro-2H-benzo[b][1,4]oxazin-2-yl)propanamide], for which, at RORγ-LBD, the pEC50 was greater than 6.30 and the “TR-FRET Assay Max Response” value is listed as “**** (The symbol “****” indicates a value greater than 200)”. Further, at Gal4-RORγ-LBD, the pEC50 was 5.30 to 6.30 and the “Gal4-RORγ Assay Max Response” value is listed as “** (The symbol “**” indicates a value in the range of greater than 90 to 150)”.
